Where two headings read alike, the source gives them in different places.
Key:
SEM cells = assay: RNA-seq global transcriptome analysis; format: cell-based, human; conditions: 14 days of treatment, versus DMSO
Experimental: NSD2 is the primary methyltransferase that transfers dimethyl to H3K36 in ALL with NSD2 gain-of-function mutation. Therefore, the effects of LLC0424 on H3K36me2 was evaluated in SEM and RPMI-8402 cells. […] Meanwhile, LLC0424 treatment also led to downregulation of H3K36Me2 in RPMI-8402 cells within 24 h (Figure 6B). […] We also conducted a colony formation assay to evaluate the effect of LLC0424 on the stem cell-like property of the leukemia cells. […] As LLC0424 leads to strong degradation of both NSD2-L and NSD2-S, the phenotypic changes upon LLC0424 treatment result from complete inactivation of NSD2 activity, including adaptor-like function of NSD2-S and SET-domain dependent enzymatic function of NSD2-L. The specific contributions of NSD2 isoforms warrant future investigation. To characterize the genes affected by LLC0424 treatment, we performed global transcriptome analysis of SEM cells treated by DMSO, LLC0424, or LLC0424N. […]
Total RNA was isolated from cells using the miRNeasy Mini Kit (Qiagen). […] Paired-end libraries were sequenced with the Illumina HiSeq 2500 (2 × 100 nucleotide read length) with sequence coverage to 15–20 M paired reads. […] Then we performed the analysis in R. First, EdgeR (edgeR_3.39.6) was used to perform read counts normalization and filtering (counts >10) and then Limma-Voom (limma_3.53.10) was used to analyze differential expression.

RPMI-8402 cells = assay: Proliferation assay (CellTiter-Glo, 9 days), RPMI-8402; format: cell-based, human; conditions: 5 μM (Fig 6E) or 2 μM (Fig S4A)
Experimental: 2 × 10^3 cells per well were seeded in 5 replicates into 96-well plates and treated with 5 μM of the compound. Every 4 days, we added the compound with 5 μL of the 20* compound-containing mixture, reaching 1*concentration. Cell proliferation was evaluated by CellTiter-Glo assay (Promega).

[1] = target: T1, NSD2 (both long and short isoforms) (Homo sapiens, UniProt O96028); assay: NSD2 degradation by immunoblotting in ALL cell lines RPMI-8402 and SEM (NSD2 E1099K); format: cell-based; conditions: for Dmax / DC50: 24 h
T1 sequence (O96028 211-350 limits assumed): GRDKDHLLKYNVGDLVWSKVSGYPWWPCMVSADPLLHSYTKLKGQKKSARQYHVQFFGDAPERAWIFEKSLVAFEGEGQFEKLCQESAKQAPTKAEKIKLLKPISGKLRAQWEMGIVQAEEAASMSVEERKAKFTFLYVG
Experimental: As previous studies have shown that ALL cell lines with NSD2 gain-of-function mutation are more dependent on NSD2 regarding H3K36me2 level and cell proliferation,[7],[8] we further characterized LLC0424 in ALL cell lines with NSD2 E1099K gain-of-function mutation (RPMI-8402 and SEM). We first treated these cells with LLC0424 with different concentrations for 24 h. […] In addition, we compared the degradation efficiency of LLC0424 with the two previously published NSD2 degraders 6 and 7 at different concentrations and time points.
After treatment, the cultured cells were collected and rinsed with phosphate-buffered saline (PBS) in room temperature. The cells were treated with RIPA buffers (ThermoFisher Scientific) supplemented with Halt Protease and Phosphatase Inhibitor Cocktail (ThermoFisher Scientific). After sonication and centrifugation, the total amount of protein in the cell lysates was measured by Pierce Bovine Serum Albumin Standard Pre-Diluted Set (ThermoFisher Scientific). After mixed with LDS-sample buffer (Invitrogen) supplemented with Sample Reducing Agent (Invitrogen) and heated in 70 °C for 10 min, equal amount of protein was loaded into NuPAGE 4–12%, Bis-Tris Protein Gel (ThermoFisher Scientific) or NuPAGE 3–8%, Tris-Acetate Protein Gel (ThermoFisher Scientific), and blotted with primary antibodies. After incubated with HRP-conjugated secondary antibodies, the membranes were developed with ECL Prime Western Blotting Detection Reagent (cytiva) and imaged on Odyssey Fc Imager (LiCOR Biosciences).

[2] = PK parameters in rats (LC/MS/MS); conditions: rat, in vivo; for MRT last: read-out: MRT (0-t)
Excerpt: Table S4. PK parameters of LLC0424 in rats a Route/dose T1/2 Tmax Cmax AUC(0-t) CL MRT Vss F(%) […]
aDetermined using LC/MS/MS. T1/2: elimination half-life; Tmax: time for maximum concentration; Cmax: maximum concentration; AUC: the area under the curve; CL: clearance; MRT: mean residence time; Vss: volume of distribution; F: oral

- Dmax ([1]; RPMI 8402, RPMI-8402 cells): > 96%
- Dmax ([1]; RPMI 8402, SEM cells): > 78%
- time at which NSD2 degradation started ([1]; RPMI-8402 and SEM cells, 2 μM): 4 h
- time to significant NSD2 degradation ([1]; RPMI-8402 and SEM cells, 2 μM): ≤ 8 h
- NSD2 degradation, comparison of degraders ([1]; RPMI-8402 and SEM cells, 0.5 and 2 μM for 24 h or 2 μM for 12 and 24 h): significant NSD2 degradation
- DC50 ([1]; RPMI-8402 cells): 20 nM
- DC50 ([1]; SEM cells): 110 nM
- AUC(0-t) ([2]; iv, i.v. 2 mg/kg): 4320 ng·h/mL
- Cmax ([2]; iv, i.v. 2 mg/kg): 7320 ng/mL
- Tmax ([2]; iv, i.v. 2 mg/kg): 0.083 h
- clearance ([2]; iv, i.v. 2 mg/kg): 7.58 mL/min/kg
- half-life ([2]; iv, i.v. 2 mg/kg): 2.1 h
- MRT last ([2]; iv, i.v. 2 mg/kg): 1.28 h
- Vd ([2]; iv, i.v. 2 mg/kg, read-out: Vss): 0.763 L/kg
- AUC(0-t) ([2]; oral 10 mg/kg): 777 ng·h/mL
- Cmax ([2]; oral 10 mg/kg): 162 ng/mL
- Tmax ([2]; oral 10 mg/kg): 2 h
- bioavailability ([2]; oral 10 mg/kg): 3.67%
- half-life ([2]; oral 10 mg/kg): 1.52 h
- MRT last ([2]; oral 10 mg/kg): 3.18 h
SMILES: O=C1CCC(N2C(=O)c3ccc(N4CCC(NC(=O)c5ccc(NC(=O)c6ccc(CN(C(=O)c7ccc8c(c7)OCC(=O)N8)C7CC7)cc6)cc5)CC4)cc3C2=O)C(=O)N1 (stereo not shown) [compound 10l, N-Cyclopropyl-N-(4-((4-((1-(2-(2,6-dioxopiperidin-3-yl)-1,3-dioxoisoindolin-5-yl)piperidin-4-yl)carbamoyl)phenyl)carbamoyl)benzyl)-3-oxo-3,4-dihydro-2H-benzo[b][1,4]oxazine-7-carboxamide]
- differentially expressed genes (transcriptome) (SEM cells): over 326
- cell growth on treatment for 9 days (RPMI-8402 cells): significantly inhibited

Source: publication PMC11094793, “Discovery of LLC0424 as a Potent and Selective in Vivo NSD2 PROTAC Degrader” (Journal of Medicinal Chemistry, 2024)
